We go through 5 compounds from PMC8760490, “Discovery of novel furanylbenzamide inhibitors that target oncogenic tyrosine phosphatase SHP2 in leukemia cells” (The Journal of Biological Chemistry, 2021).

The target in the assay is T1, PTP1B (1–300) catalytic domain (Homo sapiens, UniProt P18031).
T1 construct: Recombinant human PTP1B (1–300); His tag (pET-15b) (N); made in house; host or cells: E. coli BL21(DE3)
T1 sequence (P18031 1-300): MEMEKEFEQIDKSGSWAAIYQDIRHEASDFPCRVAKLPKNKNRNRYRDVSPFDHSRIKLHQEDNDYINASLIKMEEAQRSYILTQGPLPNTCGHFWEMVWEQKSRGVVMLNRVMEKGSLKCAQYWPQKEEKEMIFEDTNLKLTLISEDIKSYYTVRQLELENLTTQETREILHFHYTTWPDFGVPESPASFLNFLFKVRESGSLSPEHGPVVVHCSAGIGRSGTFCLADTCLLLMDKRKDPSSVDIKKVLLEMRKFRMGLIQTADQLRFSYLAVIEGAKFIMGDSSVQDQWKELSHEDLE
In words: DiFMUP phosphatase inhibition assay, PTP1B. Format: biochemical. Conditions: for IC50: catalytic domain, DiFMUP at Km (25 μM); for selectivity for SHP2 over PTP1B: from IC50 values against catalytic domains. The method, then: Selectivity is one of the biggest challenges in PTP inhibitor development. […] Similar to SHP2, we adapted a 384-well plate format DiFMUP assay for recombinant PTP1B and STEP and performed Michaelis–Menten experiments to determine DiFMUP Km values for each phosphatase. IC50 values of our inhibitors for PTP1B and STEP were determined in 10-point dose–response assays with DiFMUP used at the concentration corresponding to the respective Km value. […] Other inhibitors with good relative selectivity for SHP2 included SBI-4668 (13-fold selective over PTP1B; 73-fold selective over STEP) and SBI-3404 (fivefold selective over PTP1B; >71-fold selective over STEP).
Recombinant human full-length SHP2 (1–594) WT and E76K mutants, as well as the SHP2cat (248–527), were expressed and purified as described before ([36], [41]). Recombinant human PTP1B (1–300) and the codon-optimized STEP (280–566) catalytic domains were cloned into PET-15b and expressed as N-His-tagged fusion proteins. For expression, transformed BL21(DE3) cells were grown and induced similar as described for SHP2. Collected cells were resuspended in lysis buffer (25 mM Tris, pH 7.5, 300 mM NaCl, 50 mM imidazole, and 10% glycerol) with 100 mg/l RNaseA and were lysed with two passages using a microfluidizer. The lysate was clarified by centrifugation at 15,000g for 50 min and applied to nickel–nitrilotriacetic acid resin. The column resin was washed, and the PTP1B or STEP protein was eluted in lysis buffer at 300 mM imidazole. The PTP1B or STEP protein was further purified by S75 size-exclusion chromatography in 50 mM Tris, pH 7.5, 50 mM NaCl. The eluted peak fractions were supplemented with tris(2-carboxyethyl)phosphine to 10 mM, concentrated by ultrafiltration, and stored at −80 °C. The purified yield of PTP1B was 33 mg/l cell culture; the yield of STEP was 16 mg/l cell culture.
SHP2 inhibitors were tested at RT in a 384-well plate format standard phosphatase fluorescence intensity assay using DiFMUP (Invitrogen/Thermo Fisher Scientific) as a substrate and a total reaction volume of 25 μl. SHP2 inhibitors or vehicle (DMSO) were spotted in triplicate into a black Greiner FLUOTRAC 200 384-well microplate (catalog no.: 781076; Greiner) for a 10-point dose–response assay using an Echo 555 Liquid Handler (Labcyte, Inc). PTP working solutions were prepared at a 0.625 nM concentration (for a final concentration of 0.5 nM) in buffer containing 50 mM Bis–Tris, pH 6.0, 50 mM NaCl, 5 mM DTT, and 0.01% Tween-20. Prior to the assay, a dually phosphorylated IRS-1 peptide (625 nM [500 nM final] ([30])) was added to full-length WT SHP2 working solutions and incubated for 20 min. DiFMUP working solutions at 5× final concentration were prepared in 50 mM Bis–Tris, pH 6.0, 50 mM NaCl, and 0.01% Tween-20. About 20 μl of PTP working solution was dispensed into the microplate and incubated with inhibitor for 20 min at RT. […] The reaction was initiated by addition of 5 μl DiFMUP working solutions. Fluorescence intensity was measured in kinetic mode (every minute for 7 or 10 min) using a Tecan Spark Multimode Microplate Reader (Tecan) with an excitation wavelength of 360 nm and an emission wavelength of 460 nm. The initial rates were determined from the linear progression curves of the PTP reaction. The nonenzymatic hydrolysis of the substrate was corrected by using a control without addition of enzyme. IC50 values were calculated from the corrected initial rates by nonlinear regression using the program GraphPad Prism, version 8 (GraphPad Software, Inc) software. Dose–response inhibition assays of SHP2cat using the substrate OMFP were performed similarly as described previously for DiFMUP. OMFP was used at a concentration corresponding to its Km value for SHP2cat (50 μM final). Fluorescence intensity was measured in kinetic mode (every minute for 10 min) using a Tecan Spark Multimode Microplate Reader with an excitation wavelength of 485 nm and an emission wavelength of 535 nm. […]

Structures are written as SMILES.

For the compound `Nc1ccc(NC(=O)c2cc(-c3ccc(/C=C4\Sc5ccccc5C4=O)o3)ccc2O)cc1` [SBI-2130, (Z)-N-(4-Aminophenyl)-2-hydroxy-5-(5-((3-oxobenzo[b]thiophen-2(3H)-ylidene)methyl)furan-2-yl)benzamide], inhibition was half-maximal at 6.8 µM (IC50) and the “selectivity for SHP2 over PTP1B” value worked out at 31 fold.
`O=C1CCCC1=Cc1ccc(-c2ccc(O)c(C(=O)Nc3ccccc3)c2)o1` [SBI-3192, 2-Hydroxy-5-(5-((2-oxocyclopentylidene)methyl)furan-2-yl)-N-phenylbenzamide] registered an IC50 of 1.9 µM.
Turning to `N#Cc1cc(-c2ccc(/C=C3\Sc4ccccc4C3=O)o2)ccc1O` [SBI-3404, (Z)-2-Hydroxy-5-(5-((3-oxobenzo[b]thiophen-2(3H)-ylidene)methyl)furan-2-yl)benzonitrile], the IC50 came to 7.4 µM and the “selectivity for SHP2 over PTP1B” value was “fivefold”.
Consider `O=C1/C(=C/c2ccc(-c3ccc(O)c(-c4nn[nH]n4)c3)o2)Sc2ccccc21` [SBI-3405, (Z)-2-((5-(4-Hydroxy-3-(2H-tetrazol-5-yl)phenyl)furan-2-yl)methylene)benzo[b]thiophen-3(2H)-one], for which it took 5.3 µM to reach half-maximal inhibition (IC50).
For the compound `O=C(Nc1ccccc1)c1cc(-c2ccc(/C=C3\Sc4ccccc4C3=O)o2)ccc1O` [SBI-4668, (Z)-2-Hydroxy-5-(5-((3-oxobenzo[b]thiophen-2(3H)-ylidene)methyl)furan-2-yl)-N-phenylbenzamide], the IC50 came out at 9.4 µM and the “selectivity for SHP2 over PTP1B” value is reported as 13 fold.

As usually defined, the IC50 is the concentration that gives 50% inhibition. The low end stands for inhibition by little substance, the high end for a need for much substance.
